What was measured:
Test in all cases: KINOMEscan (ScanMAX) kinase profiling
Assay type in all cases: binding
panel of 468 kinases [1] = target: T1, panel of 468 kinases (Homo sapiens, UniProt O94921); conditions: PFTK1; 1 μM; read-out: % control
T1 construct: purchased KINOMEscan (ScanMAX) service

panel of 468 kinases [2] = target: T2, panel of 468 kinases (Homo sapiens, UniProt P51957); conditions: NEK4; 1 μM; read-out: % control
T2 construct: purchased KINOMEscan (ScanMAX) service

panel of 468 kinases [3] = target: T3, panel of 468 kinases (Homo sapiens, UniProt P42684); conditions: ABL2; 1 μM; read-out: % control
T3 construct: purchased KINOMEscan (ScanMAX) service

panel of 468 kinases [4] = target: T4, panel of 468 kinases (Homo sapiens, UniProt P35968); conditions: VEGFR2; 1 μM; read-out: % control
T4 construct: purchased KINOMEscan (ScanMAX) service

panel of 468 kinases [5] = target: T5, panel of 468 kinases (Homo sapiens, UniProt Q99640); conditions: PKMYT1; 1 μM; read-out: % control
T5 construct: purchased KINOMEscan (ScanMAX) service
T5 sequence (Q99640 1-499): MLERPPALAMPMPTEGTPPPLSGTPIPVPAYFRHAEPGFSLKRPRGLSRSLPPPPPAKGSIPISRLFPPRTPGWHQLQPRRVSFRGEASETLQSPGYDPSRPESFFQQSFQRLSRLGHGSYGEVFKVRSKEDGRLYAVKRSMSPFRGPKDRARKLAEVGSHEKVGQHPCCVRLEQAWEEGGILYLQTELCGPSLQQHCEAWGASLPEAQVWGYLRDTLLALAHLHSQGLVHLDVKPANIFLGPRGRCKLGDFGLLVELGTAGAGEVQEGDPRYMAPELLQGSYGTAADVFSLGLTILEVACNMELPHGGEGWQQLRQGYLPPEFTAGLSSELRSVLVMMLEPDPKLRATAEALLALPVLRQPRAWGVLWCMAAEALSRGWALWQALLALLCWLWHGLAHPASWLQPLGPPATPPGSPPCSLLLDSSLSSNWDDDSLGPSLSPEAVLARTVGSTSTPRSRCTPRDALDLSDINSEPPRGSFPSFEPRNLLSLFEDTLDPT

panel of 468 kinases [6] = target: T6, panel of 468 kinases (Homo sapiens, UniProt Q99558); conditions: NIK; 1 μM; read-out: % control
T6 construct: purchased KINOMEscan (ScanMAX) service

panel of 468 kinases [7] = target: T7, panel of 468 kinases (Homo sapiens, UniProt P78368); conditions: CSNK1G2; 1 μM; read-out: % control
T7 construct: purchased KINOMEscan (ScanMAX) service

panel of 468 kinases [8] = target: T8, panel of 468 kinases (Homo sapiens, UniProt P07949, V804L); conditions: RET(V804L); 1 μM; read-out: % control
T8 construct: purchased KINOMEscan (ScanMAX) service

panel of 468 kinases [9] = target: T9, panel of 468 kinases (Homo sapiens, UniProt P41743); conditions: PRKCI; 1 μM; read-out: % control
T9 construct: purchased KINOMEscan (ScanMAX) service
T9 sequence (P41743 1-596): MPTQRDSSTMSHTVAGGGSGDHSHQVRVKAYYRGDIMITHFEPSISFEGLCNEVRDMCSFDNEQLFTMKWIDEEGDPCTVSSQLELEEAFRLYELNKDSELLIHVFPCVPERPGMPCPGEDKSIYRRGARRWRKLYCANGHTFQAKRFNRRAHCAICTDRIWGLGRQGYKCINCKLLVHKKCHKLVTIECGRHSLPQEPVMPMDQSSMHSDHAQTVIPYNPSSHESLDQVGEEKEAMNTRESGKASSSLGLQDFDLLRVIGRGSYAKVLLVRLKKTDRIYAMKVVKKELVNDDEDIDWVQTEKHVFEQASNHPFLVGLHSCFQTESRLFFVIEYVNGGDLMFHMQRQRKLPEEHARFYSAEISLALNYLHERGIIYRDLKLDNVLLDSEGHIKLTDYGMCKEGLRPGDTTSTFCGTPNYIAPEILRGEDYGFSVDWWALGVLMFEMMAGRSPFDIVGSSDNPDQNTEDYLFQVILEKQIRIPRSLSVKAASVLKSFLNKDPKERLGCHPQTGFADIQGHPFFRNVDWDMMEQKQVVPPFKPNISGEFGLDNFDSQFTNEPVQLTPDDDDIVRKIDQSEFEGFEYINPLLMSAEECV

panel of 468 kinases [10] = target: T10, panel of 468 kinases (Homo sapiens, UniProt Q8IVH8); conditions: MAP4K3; 1 μM; read-out: % control
T10 construct: purchased KINOMEscan (ScanMAX) service
T10 sequence (Q8IVH8 1-894): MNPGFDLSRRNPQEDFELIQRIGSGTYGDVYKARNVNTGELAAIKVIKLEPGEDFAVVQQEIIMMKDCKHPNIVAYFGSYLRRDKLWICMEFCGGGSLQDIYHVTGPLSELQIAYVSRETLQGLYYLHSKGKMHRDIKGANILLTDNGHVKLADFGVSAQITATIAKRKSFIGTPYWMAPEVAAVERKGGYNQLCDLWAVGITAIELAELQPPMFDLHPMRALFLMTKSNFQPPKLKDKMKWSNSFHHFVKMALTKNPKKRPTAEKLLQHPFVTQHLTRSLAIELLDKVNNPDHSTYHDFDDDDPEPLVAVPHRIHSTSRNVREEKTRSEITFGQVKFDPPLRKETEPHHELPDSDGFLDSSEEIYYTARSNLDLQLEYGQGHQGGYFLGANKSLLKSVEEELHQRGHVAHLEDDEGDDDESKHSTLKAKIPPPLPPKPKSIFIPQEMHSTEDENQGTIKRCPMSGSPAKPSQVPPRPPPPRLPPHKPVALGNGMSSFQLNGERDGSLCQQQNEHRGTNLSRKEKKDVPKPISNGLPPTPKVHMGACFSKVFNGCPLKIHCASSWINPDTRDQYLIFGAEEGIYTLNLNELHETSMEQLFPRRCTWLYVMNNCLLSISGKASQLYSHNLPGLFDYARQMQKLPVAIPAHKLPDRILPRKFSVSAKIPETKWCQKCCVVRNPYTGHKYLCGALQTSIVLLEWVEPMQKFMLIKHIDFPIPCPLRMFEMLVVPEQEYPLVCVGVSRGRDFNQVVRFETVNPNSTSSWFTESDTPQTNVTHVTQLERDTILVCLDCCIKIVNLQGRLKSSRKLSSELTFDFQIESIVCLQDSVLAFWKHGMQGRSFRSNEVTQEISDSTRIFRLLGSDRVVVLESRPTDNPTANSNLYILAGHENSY

T8 sequence (P07949 29-1114 V804L): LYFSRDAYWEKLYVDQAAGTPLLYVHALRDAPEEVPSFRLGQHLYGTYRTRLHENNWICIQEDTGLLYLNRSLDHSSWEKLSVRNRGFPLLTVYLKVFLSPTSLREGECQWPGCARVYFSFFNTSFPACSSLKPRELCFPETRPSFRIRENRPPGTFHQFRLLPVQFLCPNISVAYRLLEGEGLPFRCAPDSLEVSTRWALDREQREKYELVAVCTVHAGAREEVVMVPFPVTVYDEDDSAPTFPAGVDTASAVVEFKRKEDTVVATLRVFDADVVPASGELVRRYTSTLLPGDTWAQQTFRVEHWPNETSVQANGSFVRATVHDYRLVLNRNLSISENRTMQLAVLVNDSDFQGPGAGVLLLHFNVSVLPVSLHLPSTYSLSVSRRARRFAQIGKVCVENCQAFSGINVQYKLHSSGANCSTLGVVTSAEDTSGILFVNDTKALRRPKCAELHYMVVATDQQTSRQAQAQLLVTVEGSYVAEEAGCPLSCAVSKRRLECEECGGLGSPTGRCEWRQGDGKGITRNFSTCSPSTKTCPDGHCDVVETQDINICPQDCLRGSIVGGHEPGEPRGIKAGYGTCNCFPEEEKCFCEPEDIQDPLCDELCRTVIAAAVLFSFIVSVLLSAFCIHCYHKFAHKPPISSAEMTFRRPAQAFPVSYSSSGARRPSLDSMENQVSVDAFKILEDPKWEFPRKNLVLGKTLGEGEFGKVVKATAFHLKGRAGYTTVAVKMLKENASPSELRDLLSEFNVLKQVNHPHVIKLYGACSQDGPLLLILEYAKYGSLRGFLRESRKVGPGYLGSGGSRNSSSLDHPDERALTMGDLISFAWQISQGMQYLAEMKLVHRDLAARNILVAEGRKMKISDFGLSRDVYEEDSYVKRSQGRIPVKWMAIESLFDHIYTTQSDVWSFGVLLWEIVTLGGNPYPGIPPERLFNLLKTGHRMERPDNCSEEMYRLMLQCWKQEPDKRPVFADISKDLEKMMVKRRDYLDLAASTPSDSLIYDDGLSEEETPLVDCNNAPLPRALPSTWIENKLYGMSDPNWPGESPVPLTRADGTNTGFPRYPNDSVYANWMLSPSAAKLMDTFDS
T7 sequence (P78368 whole entry): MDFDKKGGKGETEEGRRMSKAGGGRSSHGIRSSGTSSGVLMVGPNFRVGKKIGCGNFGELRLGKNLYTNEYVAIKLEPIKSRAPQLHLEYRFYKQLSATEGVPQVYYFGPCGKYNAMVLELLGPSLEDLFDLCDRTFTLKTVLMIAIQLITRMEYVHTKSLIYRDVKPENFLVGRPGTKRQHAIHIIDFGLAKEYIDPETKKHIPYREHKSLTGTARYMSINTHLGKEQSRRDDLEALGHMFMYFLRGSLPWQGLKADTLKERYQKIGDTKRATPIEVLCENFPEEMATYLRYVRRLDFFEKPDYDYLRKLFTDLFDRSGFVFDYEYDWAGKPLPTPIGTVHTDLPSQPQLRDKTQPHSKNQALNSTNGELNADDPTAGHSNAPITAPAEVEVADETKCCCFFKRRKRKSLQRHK
T3 sequence (P42684 whole entry): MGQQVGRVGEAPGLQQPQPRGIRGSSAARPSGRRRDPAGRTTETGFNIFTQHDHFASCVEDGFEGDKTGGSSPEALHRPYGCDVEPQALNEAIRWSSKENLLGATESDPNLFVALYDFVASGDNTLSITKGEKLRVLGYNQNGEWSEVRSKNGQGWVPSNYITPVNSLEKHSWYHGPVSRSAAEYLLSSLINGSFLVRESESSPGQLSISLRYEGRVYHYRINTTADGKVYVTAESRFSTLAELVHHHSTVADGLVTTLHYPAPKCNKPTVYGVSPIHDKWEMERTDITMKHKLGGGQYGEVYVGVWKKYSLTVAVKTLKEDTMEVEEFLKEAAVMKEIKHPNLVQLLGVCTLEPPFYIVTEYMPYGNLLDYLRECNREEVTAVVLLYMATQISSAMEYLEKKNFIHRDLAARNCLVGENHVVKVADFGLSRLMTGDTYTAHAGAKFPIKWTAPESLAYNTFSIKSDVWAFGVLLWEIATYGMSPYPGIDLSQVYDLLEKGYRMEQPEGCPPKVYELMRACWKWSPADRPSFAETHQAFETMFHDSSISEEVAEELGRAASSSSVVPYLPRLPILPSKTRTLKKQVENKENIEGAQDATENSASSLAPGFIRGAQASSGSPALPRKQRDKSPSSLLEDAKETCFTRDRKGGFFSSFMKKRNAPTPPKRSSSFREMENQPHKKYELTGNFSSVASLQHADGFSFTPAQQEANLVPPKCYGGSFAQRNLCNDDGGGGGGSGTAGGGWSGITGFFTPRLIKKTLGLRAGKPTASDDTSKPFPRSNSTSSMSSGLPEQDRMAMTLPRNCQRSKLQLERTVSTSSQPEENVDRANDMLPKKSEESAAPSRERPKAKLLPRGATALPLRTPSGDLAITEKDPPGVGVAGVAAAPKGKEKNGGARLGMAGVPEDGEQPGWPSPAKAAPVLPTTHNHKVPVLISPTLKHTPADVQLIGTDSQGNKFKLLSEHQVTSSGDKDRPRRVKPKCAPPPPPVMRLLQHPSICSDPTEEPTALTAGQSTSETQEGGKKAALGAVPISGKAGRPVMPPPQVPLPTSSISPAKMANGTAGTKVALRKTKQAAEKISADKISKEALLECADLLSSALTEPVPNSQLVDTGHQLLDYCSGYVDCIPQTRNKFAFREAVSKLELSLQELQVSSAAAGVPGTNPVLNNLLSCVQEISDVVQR
T4 sequence (P35968 20-1356): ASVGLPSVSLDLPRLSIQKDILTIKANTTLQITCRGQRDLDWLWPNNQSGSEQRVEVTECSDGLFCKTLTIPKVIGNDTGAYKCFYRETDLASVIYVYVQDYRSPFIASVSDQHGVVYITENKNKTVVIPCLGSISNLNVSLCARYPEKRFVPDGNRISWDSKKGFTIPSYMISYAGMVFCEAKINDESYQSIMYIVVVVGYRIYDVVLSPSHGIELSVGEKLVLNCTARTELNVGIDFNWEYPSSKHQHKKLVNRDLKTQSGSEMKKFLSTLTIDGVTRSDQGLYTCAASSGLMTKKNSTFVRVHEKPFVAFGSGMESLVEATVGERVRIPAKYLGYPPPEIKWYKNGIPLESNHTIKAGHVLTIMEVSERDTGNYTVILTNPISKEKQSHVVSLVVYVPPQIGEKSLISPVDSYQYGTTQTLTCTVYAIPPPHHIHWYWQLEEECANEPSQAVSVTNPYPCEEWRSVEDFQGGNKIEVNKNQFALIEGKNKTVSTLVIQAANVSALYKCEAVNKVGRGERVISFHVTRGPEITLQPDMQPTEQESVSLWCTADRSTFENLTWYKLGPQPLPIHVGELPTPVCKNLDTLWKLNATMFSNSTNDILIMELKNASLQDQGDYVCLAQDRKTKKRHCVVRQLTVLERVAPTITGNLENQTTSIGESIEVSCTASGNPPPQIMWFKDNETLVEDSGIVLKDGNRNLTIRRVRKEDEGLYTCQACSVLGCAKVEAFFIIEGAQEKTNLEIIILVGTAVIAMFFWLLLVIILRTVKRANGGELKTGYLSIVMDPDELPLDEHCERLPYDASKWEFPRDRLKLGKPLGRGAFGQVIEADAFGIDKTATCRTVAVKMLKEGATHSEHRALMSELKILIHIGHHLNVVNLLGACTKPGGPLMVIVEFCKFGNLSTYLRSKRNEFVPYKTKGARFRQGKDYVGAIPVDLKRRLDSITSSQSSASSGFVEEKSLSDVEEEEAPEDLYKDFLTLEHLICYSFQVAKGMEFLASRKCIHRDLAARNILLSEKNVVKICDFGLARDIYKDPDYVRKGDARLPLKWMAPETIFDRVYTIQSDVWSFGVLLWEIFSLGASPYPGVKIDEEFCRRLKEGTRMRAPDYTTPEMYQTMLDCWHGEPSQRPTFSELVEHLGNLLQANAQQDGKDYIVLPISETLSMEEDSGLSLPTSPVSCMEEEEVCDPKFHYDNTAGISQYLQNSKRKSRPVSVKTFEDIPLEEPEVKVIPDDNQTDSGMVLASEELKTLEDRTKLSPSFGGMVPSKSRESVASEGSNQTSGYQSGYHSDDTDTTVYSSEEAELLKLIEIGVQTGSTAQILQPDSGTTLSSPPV
T1 sequence (O94921 whole entry): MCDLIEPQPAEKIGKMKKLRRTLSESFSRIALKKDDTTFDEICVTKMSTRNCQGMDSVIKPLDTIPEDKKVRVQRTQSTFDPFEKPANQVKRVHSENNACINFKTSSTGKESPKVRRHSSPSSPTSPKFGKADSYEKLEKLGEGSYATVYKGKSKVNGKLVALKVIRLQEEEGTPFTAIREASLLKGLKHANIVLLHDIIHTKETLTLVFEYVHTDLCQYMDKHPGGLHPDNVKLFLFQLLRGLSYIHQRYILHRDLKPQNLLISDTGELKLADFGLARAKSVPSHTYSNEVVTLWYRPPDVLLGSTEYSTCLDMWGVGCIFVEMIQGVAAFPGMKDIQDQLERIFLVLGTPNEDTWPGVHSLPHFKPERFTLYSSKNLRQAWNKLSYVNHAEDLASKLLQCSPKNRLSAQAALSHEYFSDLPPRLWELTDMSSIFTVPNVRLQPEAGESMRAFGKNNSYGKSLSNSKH

SMILES | remaining binding at 1 µM (panel of 468 kinases [1]) [%] | remaining binding at 1 µM (panel of 468 kinases [2]) [%] | remaining binding at 1 µM (panel of 468 kinases [3]) [%] | remaining binding at 1 µM (panel of 468 kinases [4]) [%] | remaining binding at 1 µM (panel of 468 kinases [5]) [%] | remaining binding at 1 µM (panel of 468 kinases [6]) [%] | remaining binding at 1 µM (panel of 468 kinases [7]) [%] | remaining binding at 1 µM (panel of 468 kinases [8]) [%] | remaining binding at 1 µM (panel of 468 kinases [9]) [%] | remaining binding at 1 µM (panel of 468 kinases [10]) [%]
CNc1nc(Nc2ccc(S(=O)(=O)N3CCC(N4CCOCC4)CC3)cc2OC)nc2[nH]cc(Cl)c12 [Compound 12, 5-chloro-N2-(2-methoxy-4-((4-morpholinopiperidin-1-yl)sulfonyl)phenyl)-N4-methyl-7H-pyrrolo[2,3-d]pyrimidine-2,4-diamine] | 75 | 100 | 78 | 91 | 100 | 9.2 | 63 | 89 | 54 | 98
CNc1nc(Nc2ccc(P3(=O)CCN(C4CCOCC4)CC3)cc2OC)nc2[nH]cc(Cl)c12 [Compound 77, 4-(4-((5-chloro-4-(methylamino)-7H-pyrrolo[2,3-d]pyrimidin-2-yl)amino)-3-methoxyphenyl)-1-(tetrahydro-2H-pyran-4-yl)-1,4-azaphosphinane 4-oxide] | 100 | 100 | 100 | 91 | 100 | 16 | 96 | 100 | 55 | 100
CNc1nc(Nc2ccc(C(=O)N3CCC(N4CCOCC4)CC3)c3c2OCO3)nc2[nH]cc(Cl)c12 [Compound 75, (7-((5-chloro-4-(methylamino)-7H-pyrrolo[2,3-d]pyrimidin-2-yl)amino)benzo[d][1,3]dioxol-4-yl)(4-morpholinopiperidin-1-yl)methanone] | 91 | 100 | 100 | 54 | 100 | 0 | 2.9 | 42 | 65 | 81

Reference: patent publication US12479847B2 (DANA-FARBER CANCER INSTITUTE, INC., priority 2019, dated 2025)
